Test results reported in patent US10584117B2, “1,3,4-oxadiazole amide derivative compound as histone deacetylase 6 inhibitor, and pharmaceutical composition containing same” (Chong Kun Dang Pharmaceutical Corp., priority 2015, dated 2020).

Target: T1, human recombinant HDAC6 (Homo sapiens, UniProt Q9UBN7)
T1 construct: purchased Calbiochem 382180
T1 sequence (Q9UBN7 1-1215): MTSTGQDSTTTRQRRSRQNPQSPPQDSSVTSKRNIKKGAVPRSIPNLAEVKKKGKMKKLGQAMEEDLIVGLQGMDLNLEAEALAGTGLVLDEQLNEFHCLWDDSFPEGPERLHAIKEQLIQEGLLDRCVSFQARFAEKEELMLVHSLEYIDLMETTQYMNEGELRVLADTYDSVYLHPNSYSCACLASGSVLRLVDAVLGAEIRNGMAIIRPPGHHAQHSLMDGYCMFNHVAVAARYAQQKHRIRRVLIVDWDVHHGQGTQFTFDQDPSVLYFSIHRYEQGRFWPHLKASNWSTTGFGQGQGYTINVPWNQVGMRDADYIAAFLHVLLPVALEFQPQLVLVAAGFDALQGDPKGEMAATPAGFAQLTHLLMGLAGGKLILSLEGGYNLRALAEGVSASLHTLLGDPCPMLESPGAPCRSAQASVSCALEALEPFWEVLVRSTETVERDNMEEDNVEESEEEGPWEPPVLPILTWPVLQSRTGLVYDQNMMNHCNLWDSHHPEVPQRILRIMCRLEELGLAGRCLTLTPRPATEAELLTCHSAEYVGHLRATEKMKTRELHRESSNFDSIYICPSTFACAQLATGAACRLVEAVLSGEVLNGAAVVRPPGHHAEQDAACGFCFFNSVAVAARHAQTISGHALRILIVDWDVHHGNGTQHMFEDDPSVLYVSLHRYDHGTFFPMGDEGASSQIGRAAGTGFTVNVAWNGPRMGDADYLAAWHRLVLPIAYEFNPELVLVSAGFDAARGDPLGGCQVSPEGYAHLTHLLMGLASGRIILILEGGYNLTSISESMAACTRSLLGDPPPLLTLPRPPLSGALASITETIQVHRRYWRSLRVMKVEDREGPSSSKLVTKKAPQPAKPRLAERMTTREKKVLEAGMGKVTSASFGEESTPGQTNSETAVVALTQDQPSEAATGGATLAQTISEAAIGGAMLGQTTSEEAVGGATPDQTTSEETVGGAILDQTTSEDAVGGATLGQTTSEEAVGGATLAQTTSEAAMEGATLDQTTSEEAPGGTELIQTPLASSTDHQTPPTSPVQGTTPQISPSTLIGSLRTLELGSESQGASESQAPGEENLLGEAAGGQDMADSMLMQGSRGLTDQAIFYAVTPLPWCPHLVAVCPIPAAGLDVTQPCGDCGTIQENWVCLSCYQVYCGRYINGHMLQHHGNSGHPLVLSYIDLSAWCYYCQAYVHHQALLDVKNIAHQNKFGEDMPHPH
Test: HDAC enzyme activity inhibition assay (HDAC6, fluorimetric kit)
Type: biochemical
Conditions: for HDAC6 selectivity (fold): HDAC6 versus HDAC1; for IC50: same protocol as the HDAC1 test
Description: In order to examine the HDAC6 selectivity of the compounds of formula I of the present invention by HDAC1 and HDAC6 enzymatic activity inhibition assays, an experiment was performed using a conventional substance as a control. HDAC enzyme activity was measured using a HDAC Fluorimetric Drug Discovery Kit (BML-AK511, 516) from Enzo Life Science. For the HDAC1 enzyme activity test, human recombinant HDAC1 (BML-SE456) was used as an enzyme source, and Fluor de Lys®-“SIRT1 (BNL-KI177) was used as a substrate. A 5-fold dilution of the compound was seeded into a 96-well plate, and then 0.3 μg of the enzyme and 10 μM of the substrate were added to each well of the plate and allowed to react at 30° C. for 60 minutes. Then, Fluor de Lys®-Developer II (BML-KI176) was added thereto and allowed to react for 30 minutes, after which the fluorescence value (Ex 360, Em 460) was measured using a multi-plate reader (Flexstation 3, Molecular Device). The HDAC6 enzyme was tested using human recombinant HDAC6 (382180) from Calbiochem, according to the same protocol as the HDAC1 enzyme activity test method. Based on the resulting values, each IC50 value was calculated using GraphPad Prism4.0 program.

SMILES	HDAC6 selectivity (fold)	IC50 [nM]
CCCN1CC(C(=O)N(Cc2ccc(-c3nnc(C(F)F)o3)cc2F)c2cccc(F)c2)C1 [Compound 11327, N-(4-(5-(difluoromethyl)-1,3,4-oxadiazol-2-yl)-2-fluorobenzyl)-N-(3-fluorophenyl)-1-propylazetidine-3-carboxamide]	2041	49
O=C(c1ccncc1)N(Cc1ccc(-c2nnc(C(F)(F)F)o2)cc1F)c1cccc(F)c1 [Compound 11188, N-(2-fluoro-4-(5-(trifluoromethyl)-1,3,4-oxadiazol-2-yl)benzyl)-N-(3-fluorophenyl)isonicotinamide]	935	107
CCC(=O)N1CC(C(=O)N(Cc2ccc(-c3nnc(C(F)(F)F)o3)cc2)c2ccccc2)C1 [Compound 11157, N-phenyl-1-propionyl-N-(4-(5-(trifluoromethyl)-1,3,4-oxadiazol-2-yl)benzyl)azetidine-3-carboxamide]	1111	90
CC(=O)N(Cc1ccc(-c2nnc(C(F)(F)F)o2)cc1F)c1ccccc1 [Compound 11246, N-(2-fluoro-4-(5-(trifluoromethyl)-1,3,4-oxadiazol-2-yl)benzyl)-N-phenylacetamide]	758	132
O=C(C1CN(C(=O)C(F)(F)F)C1)N(Cc1ccc(-c2nnc(C(F)F)o2)cc1F)c1ccccc1 [Compound 11244, N-(4-(5-(difluoromethyl)-1,3,4-oxadiazol-2-yl)-2-fluorobenzyl)-N-phenyl-1-(2,2,2-trifluoroacetyl)azetidine-3-carboxamide]	1587	63
CC(C)C(=O)N1CC(C(=O)N(Cc2ccc(-c3nnc(C(F)(F)F)o3)cc2)c2ccccc2)C1 [Compound 11158, 1-isobutyryl-N-phenyl-N-(4-(5-(trifluoromethyl)-1,3,4-oxadiazol-2-yl)benzyl)azetidine-3-carboxamide]	1111	90
O=C(c1ccncc1)N(Cc1ccc(-c2nnc(C(F)(F)F)o2)cc1F)c1ccccc1 [Compound 11109, N-(2-fluoro-4-(5-(trifluoromethyl)-1,3,4-oxadiazol-2-yl)benzyl)-N-phenylisonicotinamide]	1818	55
CCN1CC(C(=O)N(Cc2ccc(-c3nnc(C(F)F)o3)cc2F)c2ccccc2)C1 [Compound 11239, N-(4-(5-(difluoromethyl)-1,3,4-oxadiazol-2-yl)-2-fluorobenzyl)-1-ethyl-N-phenylazetidine-3-carboxamide]	3846	26
CS(=O)(=O)N1CCC(C(=O)N(Cc2ccc(-c3nnc(C(F)(F)F)o3)cc2)c2ccccc2)CC1 [Compound 11165, 1-(methylsulfonyl)-N-phenyl-N-(4-(5-(trifluoromethyl)-1,3,4-oxadiazol-2-yl)benzyl)piperidine-4-carboxamide]	800	125
O=C(C1CCN(C(=O)C(F)(F)F)CC1)N(Cc1ccc(-c2nnc(C(F)F)o2)cc1F)c1ccccc1 [Compound 11214, N-(4-(5-(difluoromethyl)-1,3,4-oxadiazol-2-yl)-2-fluorobenzyl)-N-phenyl-1-(2,2,2-trifluoroacetyl)piperidine-4-carboxamide]	714	140
CS(=O)(=O)N1CCC(C(=O)N(Cc2ccc(-c3nnc(C(F)(F)F)o3)cc2F)c2ccccc2)CC1 [Compound 11207, N-(2-fluoro-4-(5-(trifluoromethyl)-1,3,4-oxadiazol-2-yl)benzyl)-1-(methylsulfonyl)-N-phenylpiperidine-4-carboxamide]	813	123
CCN1CCC(C(=O)N(Cc2ccc(-c3nnc(C(F)(F)F)o3)cc2)c2ccccc2)CC1 [Compound 11141, 1-ethyl-N-phenyl-N-(4-(5-(trifluoromethyl)-1,3,4-oxadiazol-2-yl)benzyl)piperidine-4-carboxamide]	306	327
CCN1CC(C(=O)N(Cc2ccc(-c3nnc(C(F)F)o3)cc2F)c2cccc(F)c2)C1 [Compound 11326, N-(4-(5-(difluoromethyl)-1,3,4-oxadiazol-2-yl)-2-fluorobenzyl)-1-ethyl-N-(3-fluorophenyl)azetidine-3-carboxamide]	1754	57
CS(=O)(=O)N1CC(C(=O)N(Cc2ccc(-c3nnc(C(F)F)o3)cc2F)c2ccccc2)C1 [Compound 11245, N-(4-(5-(difluoromethyl)-1,3,4-oxadiazol-2-yl)-2-fluorobenzyl)-1-(methylsulfonyl)-N-phenylazetidine-3-carboxamide]	2128	47
CC(C)C(=O)N1CCC(C(=O)N(Cc2ccc(-c3nnc(C(F)(F)F)o3)cc2)c2ccccc2)CC1 [Compound 11163, 1-isobutyryl-N-phenyl-N-(4-(5-(trifluoromethyl)-1,3,4-oxadiazol-2-yl)benzyl)piperidine-4-carboxamide]	452	221

Results, then the compound that gave them:

HDAC6 selectivity (fold)	IC50 [nM]	SMILES
1786	56	CC(C)N1CC(C(=O)N(Cc2ccc(-c3nnc(C(F)F)o3)cc2F)c2cccc(F)c2)C1 [Compound 11329, N-(4-(5-(difluoromethyl)-1,3,4-oxadiazol-2-yl)-2-fluorobenzyl)-N-(3-fluorophenyl)-1-isopropylazetidine-3-arboxamide]
690	145	O=C(CN1CCS(=O)(=O)CC1)N(Cc1ccc(-c2nnc(C(F)F)o2)cc1F)c1ccc(F)c(Cl)c1 [Compound 11610, N-(3-chloro-4-fluorophenyl)-N-(4-(5-(difluoromethyl)-1,3,4-oxadiazol-2-yl)-2-fluorobenzyl)-2-(1,1-dioxidothiomorpholino)acetamide]
3448	29	CS(=O)(=O)N1CC(C(=O)N(Cc2ccc(-c3nnc(C(F)F)o3)cc2F)c2cccc(F)c2)C1 [Compound 11333, N-(4-(5-(difluoromethyl)-1,3,4-oxadiazol-2-yl)-2-fluorobenzyl)-N-(3-fluorophenyl)-1-(methylsulfonyl)azetidine-3-carboxamide]
2326	43	CC(C)C(=O)N1CC(C(=O)N(Cc2ccc(-c3nnc(C(F)F)o3)cc2F)c2cccc(F)c2)C1 [Compound 11332, N-(4-(5-(difluoromethyl)-1,3,4-oxadiazol-2-yl)-2-fluorobenzyl)-N-(3-fluorophenyl)-1-isobutyrylazetidine-3-carboxamide]
2041	49	CC(=O)N(Cc1ccc(-c2nnc(C(F)F)o2)cc1F)c1cccc(F)c1 [Compound 11339, N-(4-(5-(difluoromethyl)-1,3,4-oxadiazol-2-yl)-2-fluorobenzyl)-N-(3-fluorophenyl)acetamide]
1370	73	O=C(CN1CCCC1)N(Cc1ccc(-c2nnc(C(F)F)o2)cc1F)c1ccc(F)c(Cl)c1 [Compound 11534, N-(3-chloro-4-fluorophenyl)-N-(4-(5-(difluoromethyl)-1,3,4-oxadiazol-2-yl)-2-fluorobenzyl)-2-(pyrolidin-1-yl)acetamide]
1087	92	CC(=O)N(Cc1ccc(-c2nnc(C(F)(F)F)o2)cc1F)c1cccc(F)c1 [Compound 11340, N-(2-fluoro-4-(5-(trifluoromethyl)-1,3,4-oxadiazol-2-yl)benzyl)-N-(3-fluorophenyl)acetamide]
